Test results: PubChem BioAssay (NCI)
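Here, GI50 denotes the concentration required for 50% inhibition of growth. TGI: concentration producing complete growth inhibition.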

What was measured:
Assay in all cases: NCI tumour cell line growth inhibition, 384-well format
786-0 renal = test system: 786-0 renal
A498 renal = test system: A498 renal
A549 NSCLC = test system: A549 NSCLC
ACHN renal = test system: ACHN renal
BT-549 breast = test system: BT-549 breast
CAKI-1 renal = test system: CAKI-1 renal
CCRF-CEM leukemia = test system: CCRF-CEM leukemia
COLO 205 colon = test system: COLO 205 colon
DU-145 prostate = test system: DU-145 prostate
EKVX NSCLC = test system: EKVX NSCLC
HCC-2998 colon = test system: HCC-2998 colon
HCT-15 colon = test system: HCT-15 colon
HL-60(TB) leukemia = test system: HL-60(TB) leukemia
HOP-62 NSCLC = test system: HOP-62 NSCLC
HOP-92 NSCLC = test system: HOP-92 NSCLC
HS 578T breast = test system: HS 578T breast
HT29 colon = test system: HT29 colon
IGROV1 ovarian = test system: IGROV1 ovarian
K-562 leukemia = test system: K-562 leukemia
KM12 colon = test system: KM12 colon
LOX IMVI melanoma = test system: LOX IMVI melanoma
M14 melanoma = test system: M14 melanoma
MALME-3M melanoma = test system: MALME-3M melanoma
MCF7 breast = test system: MCF7 breast
MDA-MB-231 breast = test system: MDA-MB-231 breast
MDA-MB-435 melanoma = test system: MDA-MB-435 melanoma
MDA-MB-468 breast = test system: MDA-MB-468 breast
MOLT-4 leukemia = test system: MOLT-4 leukemia
NCI-H226 lung = test system: NCI-H226 lung
NCI-H23 lung = test system: NCI-H23 lung
NCI-H322M lung = test system: NCI-H322M lung
NCI-H460 NSCLC = test system: NCI-H460 NSCLC
NCI-H522 lung = test system: NCI-H522 lung
NCI/ADR-RES ovarian = test system: NCI/ADR-RES ovarian
OVCAR-3 ovarian = test system: OVCAR-3 ovarian
OVCAR-4 ovarian = test system: OVCAR-4 ovarian
OVCAR-5 ovarian = test system: OVCAR-5 ovarian
OVCAR-8 ovarian = test system: OVCAR-8 ovarian
PC-3 prostate = test system: PC-3 prostate
RPMI-8226 leukemia = test system: RPMI-8226 leukemia
RXF 393 renal = test system: RXF 393 renal
SF-268 CNS = test system: SF-268 CNS
SF-295 CNS = test system: SF-295 CNS
SF-539 CNS = test system: SF-539 CNS
SK-MEL-28 melanoma = test system: SK-MEL-28 melanoma
SK-MEL-5 melanoma = test system: SK-MEL-5 melanoma
SK-OV-3 ovarian = test system: SK-OV-3 ovarian
SN12C renal = test system: SN12C renal
SNB-19 CNS = test system: SNB-19 CNS
SNB-75 CNS = test system: SNB-75 CNS
SR leukemia = test system: SR leukemia
SW-620 colon = test system: SW-620 colon
T-47D breast = test system: T-47D breast
TK-10 renal = test system: TK-10 renal
U251 glioblastoma = test system: U251 glioblastoma
UACC-257 melanoma = test system: UACC-257 melanoma
UACC-62 melanoma = test system: UACC-62 melanoma
UO-31 renal = test system: UO-31 renal

With `O=C(Nc1cccc(Nc2ncc(Br)c(NCCc3cnc[nH]3)n2)c1)N1CCCC1` the GI50 ([…]-0 renal) was 5.36 µM, the TGI (786-0 renal) was 19.5 µM and the GI50 (A498 renal) was 4.58 µM. For the same molecule, the TGI (A498 renal) was 60.7 µM, the GI50 (A549 NSCLC) was 6.32 µM and the TGI (A549 NSCLC) was > 100 µM. It also gave a GI50 (ACHN renal) of 12.8 µM, a TGI (ACHN renal) of 59.5 µM and a GI50 (BT-549 breast) of 1.57 µM. The TGI (BT-549 breast) was 5.23 µM, the GI50 (CAKI-1 renal) was 3.62 µM and the TGI (CAKI-1 renal) was 19.7 µM. The GI50 (CCRF-CEM leukemia) was 0.19 µM, the TGI (CCRF-CEM leukemia) was 0.377 µM and the GI50 (COLO 205 colon) was 0.273 µM. For the same molecule, the TGI (COLO 205 colon) was 0.886 µM, the GI50 (DU-145 prostate) was 5.13 µM and the TGI (DU-145 prostate) was 19.3 µM. The GI50 (EKVX NSCLC) was 6.65 µM, the TGI (EKVX NSCLC) was 27.3 µM and the GI50 (HCC-2998 colon) was 6.06 µM. For the same molecule, the TGI (HCC-2998 colon) was 19 µM, the GI50 (HCT-15 colon) was 11.4 µM and the TGI (HCT-15 colon) was 25.6 µM. The GI50 (HL-60(TB) leukemia) was 0.399 µM, the TGI (HL-60(TB) leukemia) was 1.94 µM and the GI50 (HOP-62 NSCLC) was 2.78 µM. For the same molecule, the TGI (HOP-62 NSCLC) was 12.4 µM, the GI50 (HOP-92 NSCLC) was 1.6 µM and the TGI (HOP-92 NSCLC) was 6.13 µM. The GI50 (HS 578T breast) was 1.44 µM, the TGI (HS 578T breast) was 3.59 µM and the GI50 (HT29 colon) was 4.1 µM. For the same molecule, the TGI (HT29 colon) was 18.5 µM, the GI50 (IGROV1 ovarian) was 6.48 µM and the TGI (IGROV1 ovarian) was 21.1 µM. The GI50 (K-562 leukemia) was 2.05 µM, the TGI (K-562 leukemia) was 10.5 µM and the GI50 (KM12 colon) was 0.684 µM. It also gave a TGI (KM12 colon) of 10.6 µM, a GI50 (LOX IMVI melanoma) of 1.18 µM and a TGI (LOX IMVI melanoma) of 2.8 µM. For the same molecule, the GI50 (M14 melanoma) was 3.02 µM, the TGI (M14 melanoma) was 12.9 µM and the GI50 (MALME-3M melanoma) was 4.16 µM. For the same molecule, the TGI (MALME-3M melanoma) was 17.9 µM, the GI50 (MCF7 breast) was 3.67 µM and the TGI (MCF7 breast) was 19.9 µM. It also gave a GI50 (MDA-MB-231 breast) of 2.4 µM, a TGI (MDA-MB-231 breast) of 12.7 µM and a GI50 (MDA-MB-435 melanoma) of 2.96 µM. The TGI (MDA-MB-435 melanoma) was 16.5 µM, the GI50 (MDA-MB-468 breast) was 0.283 µM and the TGI (MDA-MB-468 breast) was 0.631 µM. It also gave a GI50 (MOLT-4 leukemia) of 0.202 µM, a TGI (MOLT-4 leukemia) of 0.403 µM and a GI50 (NCI-H226 lung) of 0.873 µM. The TGI (NCI-H226 lung) was 4.74 µM, the GI50 (NCI-H23 lung) was 2.31 µM and the TGI (NCI-H23 lung) was 10.7 µM. The GI50 (NCI-H322M lung) was 10.3 µM, the TGI (NCI-H322M lung) was 22.3 µM and the GI50 (NCI-H460 NSCLC) was 2.96 µM. The TGI (NCI-H460 NSCLC) was 8.71 µM, the GI50 (NCI-H522 lung) was 1.08 µM and the TGI (NCI-H522 lung) was 4.86 µM. For the same molecule, the GI50 (NCI/ADR-RES ovarian) was > 100 µM, the TGI (NCI/ADR-RES ovarian) was > 100 µM and the GI50 (OVCAR-3 ovarian) was 2.72 µM. For the same molecule, the TGI (OVCAR-3 ovarian) was 17.3 µM, the GI50 (OVCAR-4 ovarian) was 1.13 µM and the TGI (OVCAR-4 ovarian) was 10.4 µM. It also gave a GI50 (OVCAR-5 ovarian) of 4.3 µM, a TGI (OVCAR-5 ovarian) of 24.9 µM and a GI50 (OVCAR-8 ovarian) of 5.61 µM. The TGI (OVCAR-8 ovarian) was 18.9 µM, the GI50 (PC-3 prostate) was 4.38 µM and the TGI (PC-3 prostate) was 18.4 µM. The GI50 (RPMI-8226 leukemia) was 1.45 µM, the TGI (RPMI-8226 leukemia) was 2.9 µM and the GI50 (RXF 393 renal) was 6.04 µM. For the same molecule, the TGI (RXF 393 renal) was 20.9 µM, the GI50 (SF-268 CNS) was 1.92 µM and the TGI (SF-268 CNS) was 10.2 µM. For the same molecule, the GI50 (SF-295 CNS) was 3.77 µM, the TGI (SF-295 CNS) was 14.5 µM and the GI50 (SF-539 CNS) was 0.955 µM. It also gave a TGI (SF-539 CNS) of 4.06 µM, a GI50 (SK-MEL-28 melanoma) of 5.06 µM and a TGI (SK-MEL-28 melanoma) of 18.7 µM. For the same molecule, the GI50 (SK-MEL-5 melanoma) was 3.58 µM, the TGI (SK-MEL-5 melanoma) was 14.6 µM and the GI50 (SK-OV-3 ovarian) was 4.21 µM. For the same molecule, the TGI (SK-OV-3 ovarian) was 18.8 µM, the GI50 (SN12C renal) was 1.48 µM and the TGI (SN12C renal) was 10.6 µM. The GI50 (SNB-19 CNS) was 8.32 µM, the TGI (SNB-19 CNS) was 46.8 µM and the GI50 (SNB-75 CNS) was 2 µM. It also gave a TGI (SNB-75 CNS) of 8.78 µM, a GI50 (SR leukemia) of 0.18 µM and a TGI (SR leukemia) of 0.349 µM. It also gave a GI50 (SW-620 colon) of 1.6 µM, a TGI (SW-620 colon) of 5.1 µM and a GI50 (T-47D breast) of 4.37 µM. For the same molecule, the TGI (T-47D breast) was 17.2 µM, the GI50 (TK-10 renal) was 7.86 µM and the TGI (TK-10 renal) was 23.8 µM. It also gave a GI50 (U251 glioblastoma) of 9.49 µM, a TGI (U251 glioblastoma) of 79.1 µM and a GI50 (UACC-257 melanoma) of 10.5 µM. It also gave a TGI (UACC-257 melanoma) of 22.4 µM, a GI50 (UACC-62 melanoma) of 1.69 µM and a TGI (UACC-62 melanoma) of 14.2 µM. For the same molecule, the GI50 (UO-31 renal) was 26.6 µM and the TGI (UO-31 renal) was > 100 µM.
